One experiment deals with ovulation in female rats. Nature of the experiment: in vivo testing of effectiveness to prevent ovulation in female rats. Also noted: species or system Sprague-Dawley rats. To be noted: injected at about noon on the day of proestrus, rats ovulating/rats treated. As for the experimental part: The in vivo testing determines effectiveness to prevent ovulation in female rats. In this test, a specified number of mature female Sprague-Dawley rats, e.g. five to ten, each having a body weight from 225 to 250 grams, is injected with a specified microgram dosage of peptide in either saline, bacteriostatic water, polyethylene glycol, corn oil or mixtures of the above with ethanol at about noon on the day of proestrus. Proestrus is the afternoon […]. A separate female rat group is used as a control to which the peptide is not administered. Each of the control female rats ovulates on the evening of proestrus; of the rats treated, the number of them which ovulate is recorded. Each of the peptides is considered to be totally effective to prevent ovulation of female rats at a dose of about 500 micrograms.

The test system of experiment [1] is LH levels in the bloodstream. Nature of the experiment: suppression of circulating LH in castrate male rats after single IV bolus. Format: in vivo, Sprague-Dawley rats. The source says: In addition to the in vivo testing, mentioned above, to determine effectiveness to prevent ovulation in female rats, groups of about 6 adult castrate male Sprague-Dawley rats, each having a body weight from 225 to 250 grams, are each injected IV with a 50 microgram dosage of either Peptide No. 103A or a standard antagonist referred to as the Nal-Glu antagonist (see J. Clin. Edno. Metab., 71, 4, 881-888 (1990)) in either corn oil or a phosphate buffer in the presence of BSA (bovine serum albumin). A separate rat group is used as a control, to which only the carrier is administered. Each of the control rats and the rats being treated are monitored for LH levels in the bloodstream at about 3 hours, 24 hours, 36 hours and 48 hours following this single bolus injection.

As to “Ac-β-D-2NAL-(4Cl)D-Phe-D-3PAL-Ser-Lys (isopropyl cyanoguanidino)-D-Lys(isopropyl cyanoguanidino)-Leu-Lys(isopropyl)-Pro-D-Ala-NH2 [Peptide 1]”, the “Rats Ovulating” value was 0/5 in the experiment with ovulation in female rats (dosage 1.0 micrograms) and 0/9 in the experiment on ovulation in female rats (dosage 2.5 micrograms).
As to “Ac-β-D-2NAL-(4Cl)D-Phe-D-3PAL-Ser-Aph(3-amino 1,2,4 triazole)-D-Aph(3-amino 1,2,4 triazole)-Leu-Lys(isopropyl)-Pro-D-Ala-NH2 [Peptide 103A]”, the “Rats Ovulating” value is 7/8 with ovulation in female rats (dosage 0.5 micrograms), 0/7 in the experiment with ovulation in female rats (dosage 1.0 micrograms) and 0/8 in the experiment with ovulation in female rats (dosage 2.5 micrograms). Further, the “level of circulating LH in the bloodstream relative to Nal-Glu antagonist” value in experiment [1] (50 microgram IV, after 12 hours) is given as “below that of the rats treated with the Nal-Glu antagonist”. For the same substance, in experiment [1] (50 microgram IV, monitored at about 3, 24, 36 and 48 hours), the “level of circulating LH in the bloodstream relative to control” value is “very substantially below that of the control”. Besides, the “duration of biological effect (LH suppression)” value in experiment [1] (single 50 microgram IV bolus injection) is “very long-acting”.

Source of the values: patent publication US6747125B1, “Peptides intermediates for making GnRH antagonists” (The Salk Institute for Biological Studies, priority 1991, dated 2004).
